# Test results reported in publication PMC12340637, “Transport of Small Aliphatic Amines by Polyspecific Solute Carriers: Deciphering Structure–Function Relationships” (ACS Pharmacology & Translational Science, 2025).
# Read-outs that look alike come from different tables or passages of the source. Marks after values point to notes of the source that are not given here.
# Experiments:
# [1] = molecular target: T1, OCT2 (SLC22A2) (Homo sapiens, UniProt O15244); assay: Cellular uptake into OCT2-overexpressing HEK293 cells vs EV control cells (HPLC-MS/MS); settings: for K m (±SEM) / v max (±SEM): OCT2, net uptake, Michaelis–Menten; for uptake ratio OCT2 (transporter-overexpressing cells over EV control cells): mean (±SD, N): 2 min, HEK293
# T1 sequence (O15244 1-555): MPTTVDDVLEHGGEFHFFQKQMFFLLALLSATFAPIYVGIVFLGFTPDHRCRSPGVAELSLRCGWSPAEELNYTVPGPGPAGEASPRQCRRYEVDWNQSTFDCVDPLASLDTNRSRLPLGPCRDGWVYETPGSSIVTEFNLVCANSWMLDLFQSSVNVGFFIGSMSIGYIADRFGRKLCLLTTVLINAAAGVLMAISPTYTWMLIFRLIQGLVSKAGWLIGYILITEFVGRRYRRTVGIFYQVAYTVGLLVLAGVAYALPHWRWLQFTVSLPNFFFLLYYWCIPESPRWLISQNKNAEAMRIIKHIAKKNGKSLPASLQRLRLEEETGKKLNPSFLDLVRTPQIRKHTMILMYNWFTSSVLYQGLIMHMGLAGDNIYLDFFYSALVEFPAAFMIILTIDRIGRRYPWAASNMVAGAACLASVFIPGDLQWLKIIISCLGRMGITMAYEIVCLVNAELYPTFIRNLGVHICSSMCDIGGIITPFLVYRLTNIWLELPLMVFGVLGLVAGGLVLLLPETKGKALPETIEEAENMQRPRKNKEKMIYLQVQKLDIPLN
# [2] = molecular target: T2, OCT3 (SLC22A3) (Homo sapiens, UniProt O75751); assay: Cellular uptake into OCT3-overexpressing HEK293 cells vs EV control cells (HPLC-MS/MS); settings: for substrate activity at OCT3 (in words): uptake ratio ≥2 = notable transport; for uptake ratio OCT3 (transporter-overexpressing cells over EV control cells): mean (±SD, N): 2 min, HEK293
# T2 sequence (O75751 1-556): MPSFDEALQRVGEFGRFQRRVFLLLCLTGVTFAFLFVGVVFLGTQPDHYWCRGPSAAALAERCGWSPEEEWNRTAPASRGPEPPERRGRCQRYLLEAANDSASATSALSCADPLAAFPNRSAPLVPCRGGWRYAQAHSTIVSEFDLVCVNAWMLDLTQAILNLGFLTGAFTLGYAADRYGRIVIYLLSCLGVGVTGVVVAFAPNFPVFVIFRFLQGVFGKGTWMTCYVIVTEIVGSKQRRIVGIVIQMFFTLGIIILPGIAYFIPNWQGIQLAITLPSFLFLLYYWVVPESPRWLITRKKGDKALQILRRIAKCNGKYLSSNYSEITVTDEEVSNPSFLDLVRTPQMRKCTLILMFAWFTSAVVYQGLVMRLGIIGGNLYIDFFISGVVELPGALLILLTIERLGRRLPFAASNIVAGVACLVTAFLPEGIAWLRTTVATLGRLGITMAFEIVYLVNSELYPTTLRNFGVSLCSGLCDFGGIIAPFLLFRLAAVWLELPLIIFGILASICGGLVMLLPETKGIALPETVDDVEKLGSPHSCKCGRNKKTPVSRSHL
# [3] = molecular target: T1, OCT2 (SLC22A2); assay: in vitro; settings: pH 7.4
# [4] = molecular target: T3, OCT1 (SLC22A1) (Homo sapiens, UniProt O15245); assay: Cellular uptake into OCT1-overexpressing HEK293 cells vs EV control cells (HPLC-MS/MS); settings: for uptake ratio OCT1 (transporter-overexpressing cells over EV control cells): mean (±SD, N): 2 min, HEK293
# T3 sequence (O15245 1-554): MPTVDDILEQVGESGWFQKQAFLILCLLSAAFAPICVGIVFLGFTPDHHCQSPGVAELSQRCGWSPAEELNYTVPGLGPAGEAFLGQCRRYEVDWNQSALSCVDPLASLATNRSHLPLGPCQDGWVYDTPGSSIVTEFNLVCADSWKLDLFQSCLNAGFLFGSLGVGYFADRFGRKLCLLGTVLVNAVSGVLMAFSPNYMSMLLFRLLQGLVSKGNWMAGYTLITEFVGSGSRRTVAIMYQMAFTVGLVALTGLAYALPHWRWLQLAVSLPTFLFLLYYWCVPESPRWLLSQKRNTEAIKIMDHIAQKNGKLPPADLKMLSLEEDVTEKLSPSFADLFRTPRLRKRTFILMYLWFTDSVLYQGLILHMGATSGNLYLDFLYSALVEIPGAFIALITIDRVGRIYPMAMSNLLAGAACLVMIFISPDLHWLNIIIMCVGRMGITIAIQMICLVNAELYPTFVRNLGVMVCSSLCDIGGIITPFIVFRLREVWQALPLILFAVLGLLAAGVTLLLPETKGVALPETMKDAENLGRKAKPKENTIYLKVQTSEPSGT
# [5] = molecular target: T4, MATE1 (SLC47A1) (Homo sapiens, UniProt Q96FL8); assay: Cellular uptake into MATE1-overexpressing HEK293 cells vs EV control cells (HPLC-MS/MS); settings: for uptake ratio MATE1 (transporter-overexpressing cells over EV control cells): mean (±SD, N): 2.5 μM substrate, 1 min, 30 mM NH4Cl preincubation, HEK293
# T4 sequence (Q96FL8 1-570): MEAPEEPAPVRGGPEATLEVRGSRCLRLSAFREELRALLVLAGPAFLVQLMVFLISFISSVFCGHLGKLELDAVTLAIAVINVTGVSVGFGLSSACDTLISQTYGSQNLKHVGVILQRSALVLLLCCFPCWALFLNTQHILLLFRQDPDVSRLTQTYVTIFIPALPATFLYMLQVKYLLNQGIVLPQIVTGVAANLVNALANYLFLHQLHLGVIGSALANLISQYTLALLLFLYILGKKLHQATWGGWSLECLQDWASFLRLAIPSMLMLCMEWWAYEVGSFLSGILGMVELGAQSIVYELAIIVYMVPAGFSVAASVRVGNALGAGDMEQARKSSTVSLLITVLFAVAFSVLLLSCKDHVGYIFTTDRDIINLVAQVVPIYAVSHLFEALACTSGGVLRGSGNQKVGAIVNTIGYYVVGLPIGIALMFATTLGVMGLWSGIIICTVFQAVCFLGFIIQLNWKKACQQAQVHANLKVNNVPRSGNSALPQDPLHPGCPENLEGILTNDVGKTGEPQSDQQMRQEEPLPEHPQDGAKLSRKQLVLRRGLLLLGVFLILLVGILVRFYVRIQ
# [6] = molecular target: MATE2-K (SLC47A2) (Homo sapiens, UniProt Q86VL8); assay: Cellular uptake into MATE2-K-overexpressing HEK293 cells vs EV control cells (HPLC-MS/MS); settings: for uptake ratio MATE2K (transporter-overexpressing cells over EV control cells): mean (±SD, N): 2.5 μM substrate, 1 min, 30 mM NH4Cl preincubation, HEK293
# Chain of MATE2-K (SLC47A2) (Q86VL8 1-566 isoform Q86VL8-3): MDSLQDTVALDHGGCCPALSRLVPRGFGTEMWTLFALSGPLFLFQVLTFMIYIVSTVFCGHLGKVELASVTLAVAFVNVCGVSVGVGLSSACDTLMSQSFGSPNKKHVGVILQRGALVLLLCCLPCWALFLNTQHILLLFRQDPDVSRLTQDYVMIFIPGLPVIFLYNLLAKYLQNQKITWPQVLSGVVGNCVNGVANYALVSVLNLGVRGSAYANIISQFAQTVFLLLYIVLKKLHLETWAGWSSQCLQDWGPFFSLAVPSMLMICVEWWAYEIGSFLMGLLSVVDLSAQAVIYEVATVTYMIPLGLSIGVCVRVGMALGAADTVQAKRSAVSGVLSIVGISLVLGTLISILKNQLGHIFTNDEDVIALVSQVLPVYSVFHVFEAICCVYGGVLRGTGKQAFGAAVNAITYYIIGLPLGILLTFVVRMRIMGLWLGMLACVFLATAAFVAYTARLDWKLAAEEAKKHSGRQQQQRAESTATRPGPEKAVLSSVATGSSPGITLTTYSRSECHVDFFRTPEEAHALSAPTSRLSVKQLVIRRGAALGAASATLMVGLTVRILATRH
# [7] = OCT1, net uptake, Michaelis–Menten
# [8] = MATE1, net uptake, Michaelis–Menten
# [9] = uptake ratio ≥2 = notable transport
"uptake ratio OCT2 (transporter-overexpressing cells over EV control cells): mean (±SD, N) ([1]; 10 μM substrate)","uptake ratio OCT1 (transporter-overexpressing cells over EV control cells): mean (±SD, N) ([4]; 10 μM substrate)","uptake ratio MATE1 (transporter-overexpressing cells over EV control cells): mean (±SD, N) [5]","uptake ratio MATE2K (transporter-overexpressing cells over EV control cells): mean (±SD, N) [6]","uptake ratio OCT3 (transporter-overexpressing cells over EV control cells): mean (±SD, N) ([2]; 10 μM substrate)",Compound,other results
–,–,–,–,–,CCCC[C@H](N)CO [(S)-(+)-2-amino-1-hexanol],K m (±SEM) [1]: 39 (±12) μM; v max (±SEM) [1]: 786 (±72) ^b pmol/mg protein/min; stereoselectivity OCT3 (uptake ratio of the more strongly transported enantiomer divided by that of the other) ([2]; label = favoured enantiomer): 1.3-fold for (S); selectivity ratio at 2 min [3]: 1.3
–,–,–,–,–,CC(C)C[C@H](N)CO [(S)-(+)-leucinol],selectivity ratio at 2 min [3]: 1.2
–,–,–,–,–,OCCNCCO [diethanolamine],substrate activity at OCT2 (in words) [1]: did not show any substrate activity; substrate activity at OCT1 (in words) [4]: did not show any substrate activity; substrate activity at MATE1 (in words) [5]: did not show any substrate activity; substrate activity at MATE2-K (in words) [6]: did not show any substrate activity; substrate activity at OCT3 (in words) [2]: did not show any substrate activity
"0.4 (0.2, 4) ^b","0.6 (0.3, 4)","1.2 (0.4, 4)","1.2 (0.4, 4)","1.4 (0.5, 4)","NCCO [ethanolamine^13C2, ethanolamine-^13C2]","less uptake in OCT2-transfected cells compared to EV control cells ([1]; 10 μM, p = 0.009): 64%; uptake in OCT2-overexpressing cells as part of the uptake observed in EV control cells ([1]; discussion): two-thirds; lower uptake in OCT1-transfected cells compared to EV control cells ([4]; 10 μM): 38%; uptake in OCT1-overexpressing cells as part of the uptake observed in EV control cells ([4]; discussion): approximately one-third"
–,–,"6.6 (1.3, 3) ^a","1.0 (0.2, 3)",–,CC(N)CCCC(C)(C)O (centres unmarked) [heptaminol],"uptake ratio OCT2 (transporter-overexpressing cells over EV control cells): mean (±SD, N) ([1]; 2.5 μM substrate (§)): 8.7 (5.0, 3); K m (±SEM) [1]: 1089 (±213) μM; v max (±SEM) [1]: 9730 (±1210) pmol/mg protein/min; uptake ratio OCT1 (transporter-overexpressing cells over EV control cells): mean (±SD, N) ([4]; 2.5 μM substrate (§)): 11.3 (4.6, 3); K m (±SEM) [4, 7]: 241 (±68) μM; v max (±SEM) [4, 7]: 1480 (±174) pmol/mg protein/min; K m (±SEM) [5, 8]: 154 (±18) μM; v max (±SEM) [5, 8]: 8061 (±283) pmol/mg protein/min; CLint of MATE1 higher than that of OCT1 ([5]; MATE1 vs OCT1): 6.0 fold; CLint of MATE1 higher than that of OCT2 ([5]; MATE1 vs OCT2): 3.7 fold; uptake ratio OCT3 (transporter-overexpressing cells over EV control cells): mean (±SD, N) ([2]; 2.5 μM substrate (§)): 1.1 (0.29, 4)"
"4.2 (3.1, 6) ^a","2.5 (1.9, 6)","1.0 (0.3, 4)","1.4 (0.3, 4)","1.85 (1.17, 6)",CCCCCCCN [heptylamine],–
"1.6 (0.4, 4)","1.8 (1.4, 5)","0.8 (0.2, 4)","1.2 (0.6, 5)","0.6 (0.2, 4) ^a",CCCCCCN [hexylamine],–
"3.4 (1.2, 4) ^a","1.1 (0.2, 4)","0.9 (0.2, 4)","1.2 (0.3, 4)","0.7 (0.2, 4) ^a",CC(C)CN [isobutylamine],–
–,–,"0.9 (0.2, 3)","1.0 (0.1, 3)",–,CCC(C)(C)N [tert-amylamine],"uptake ratio OCT2 (transporter-overexpressing cells over EV control cells): mean (±SD, N) ([1]; 2.5 μM substrate (§)): 4.7 (2.1, 3); uptake ratio OCT1 (transporter-overexpressing cells over EV control cells): mean (±SD, N) ([4]; 2.5 μM substrate (§)): 1.0 (0.3, 3); uptake ratio OCT3 (transporter-overexpressing cells over EV control cells): mean (±SD, N) ([2]; 2.5 μM substrate (§)): 0.8 (0.1, 3)"
"5.0 (1.3, 4) ^b","1.2 (0.1, 4)","0.8 (0.2, 3)","1.1 (0.2, 3)","0.8 (0.3, 4)",CCN(CC)CC [triethylamine],v max (±SEM) [1]: 1053 (±206) pmol/mg protein/min
- ^d,- ^d,- ^d,- ^d,- ^d,CC(N)CN(CC(C)N)CC(C)N (centres unmarked) [tris(2-aminopropyl)amine],"substrate activity at OCT2 (in words) [1, 9]: did not show any substrate activity; substrate activity at OCT1 (in words) [4, 9]: did not show any substrate activity; substrate activity at MATE1 (in words) [5, 9]: did not show any substrate activity; substrate activity at MATE2-K (in words) [6, 9]: did not show any substrate activity; substrate activity at OCT3 (in words) [2]: did not show any substrate activity"
